The values below come from patent EP2818471A1, “Nitrogen bicyclic compounds as inhibitors for Scyl1 and Grk5” (Max-Planck-Gesellschaft zur Förderung der Wissenschaften …, priority 2013, dated 2014).

Where only a bound is given, the exact number is not on record here.

The experiment relates to beta-TC6 cells. The experiment is described as follows: Insulin HTRF assay, relative activity Ar normalized to sunitinib. The class given is cell-based. To be noted: Mus musculus, normalized to positive control sunitinib (5 µM = 100%), Table 10. In short, it runs like this: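 beta-TC6 cells (15k/well) were seeded for 24 or 48 h, washed and exposed to test compound or sunitinib (5 µM f.c.) in induction buffer with 0.5% DMSO for 2, 3 or 4 h at 37°C. Secreted insulin in the supernatant was measured by two-antibody HTRF after 120 min at RT. Ar = (V − 0% control)/(100% control − 0% control) × 100.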
(TR-FRET usually uses a lanthanide donor and a delayed reading to cut background.)
Regarding `COc1ccc(-c2cn3c(-c4ccc(N(C)C)cc4)cnc3cn2)cn1` [compound 288, 4-[6-(6-methoxy-3-pyridyl)imidazo[1,2-a]pyrazin-3-yl]-N,N-dimethyl-aniline], the Emax was 50 to 100%.

Regarding `CN(C)CCNC(=O)c1ccc(-c2cn3c(-c4ccc(N(C)C)cc4)cnc3cn2)cc1` [compound 289, N-(2-dimethylaminoethyl)-4-[3-(4-dimethylaminophenyl)imidazo[1,2-a]pyrazin-6-yl]benzamide], the Emax was 50 to 100%.

Regarding `CN(C)c1ccc(-c2cnc3cnc(-c4ccc(C(=O)NCCO)cc4)cn23)cc1` [compound 290, 4-[3-(4-dimethylaminophenyl)imidazo[1,2-a]pyrazin-6-yl]-N-(2-hydroxyethyl)benzamide], the Emax is 50 to 100%.

Turning to `CN(C)c1ccc(-c2cnc3cnc(-c4ccc(C(=O)N5CCOCC5)cc4)cn23)cc1` [compound 291, [4-[3-(4-dimethylaminophenyl)imidazo[1,2-a]pyrazin-6-yl]phenyl]-morpholino-methanone], the Emax was in the range of 20 to 50%.

Take `CN(C)c1ccc(-c2cnc3cnc(-c4cccc(C(N)=O)c4)cn23)cc1` [compound 292, 3-[3-(4-dimethylaminophenyl)imidazo[1,2-a]pyrazin-6-yl]benzamide]: the Emax lay in the range of 20 to 50%.

`CN(C)C(=O)c1cccc(-c2cn3c(-c4ccc(N(C)C)cc4)cnc3cn2)c1` [compound 293, 3-[3-(4-dimethylaminophenyl)imidazo[1,2-a]pyrazin-6-yl]-N,N-dimethyl-benzamide] showed a maximal response (Emax) of 20 to 50%.

In turn, `CN(C)c1ccc(-c2cnc3cnc(-c4ccccc4Cl)cn23)cc1` [compound 294, 4-[6-(2-chlorophenyl)imidazo[1,2-a]pyrazin-3-yl]-N,N-dimethyl-aniline] had an Emax of 20 to 50%.

With `CN(C)c1ccc(-c2cnc3cnc(-c4cccc(NS(C)(=O)=O)c4)cn23)cc1` [compound 295, N-[3-[3-(4-dimethylaminophenyl)imidazo[1,2-a]pyrazin-6-yl]phenyl]methanesulfonamide], the Emax was 20 to 50%.

Take `c1ccc(-c2cnc3cnc(-c4ccsc4)cn23)cc1` [compound 296, 3-phenyl-6-(3-thienyl)imidazo[1,2-a]pyrazine]: the maximum response (Emax) was in the range of 20 to 50%.

Regarding `Fc1cccc(-c2cn3c(-c4ccccc4)cnc3cn2)c1` [compound 297, 6-(3-fluorophenyl)-3-phenyl-imidazo[1,2-a]pyrazine], the Emax lay within 20 to 50%.

The compound `c1ccc(-c2cnc3cnc(-c4cccs4)cn23)cc1` [compound 298, 3-phenyl-6-(2-thienyl)imidazo[1,2-a]pyrazine] came in with an Emax of 20 to 50%.

On to `O=C(NC1CC1)c1ccc(-c2cn3c(-c4ccccc4)cnc3cn2)cc1` [compound 299, N-cyclopropyl-4-(3-phenylimidazo[1,2-a]pyrazin-6-yl)benzamide], for which the maximal effect (Emax) is 20 to 50%.

Take `c1ccc(-c2cn3c(-c4ccc5c(c4)OCO5)cnc3cn2)cc1` [compound 300, 3-(1,3-benzodioxol-5-yl)-6-phenyl-imidazo[1,2-a]pyrazine]: the Emax lay in the range of 50 to 100%.

On to `c1cc(-c2cn3c(-c4ccc5c(c4)OCO5)cnc3cn2)cs1` [compound 301, 3-(1,3-benzodioxol-5-yl)-6-(3-thienyl)imidazo[1,2-a]pyrazine], for which the Emax lay in the range of 50 to 100%.

Regarding `CCOc1cccc(-c2cn3c(-c4ccc5c(c4)OCO5)cnc3cn2)c1` [compound 302, 3-(1,3-benzodioxol-5-yl)-6-(3-ethoxyphenyl)imidazo[1,2-a]pyrazine], the Emax was 50 to 100%.

For `Clc1cccc(-c2cn3c(-c4ccc5c(c4)OCO5)cnc3cn2)c1` [compound 303, 3-(1,3-benzodioxol-5-yl)-6-(3-chlorophenyl)imidazo[1,2-a]pyrazine], the Emax was in the range of 50 to 100%.

For `Fc1cccc(-c2cn3c(-c4ccc5c(c4)OCO5)cnc3cn2)c1` [compound 304, 3-(1,3-benzodioxol-5-yl)-6-(3-fluorophenyl)imidazo[1,2-a]pyrazine], the Emax lay within 50 to 100%.

In turn, `Cc1ccccc1-c1cn2c(-c3ccc4c(c3)OCO4)cnc2cn1` [compound 305, 3-(1,3-benzodioxol-5-yl)-6-(o-tolyl)imidazo[1,2-a]pyrazine] registered a maximal effect (Emax) of 20 to 50%.

On to `c1csc(-c2cn3c(-c4ccc5c(c4)OCO5)cnc3cn2)c1` [compound 306, 3-(1,3-benzodioxol-5-yl)-6-(2-thienyl)imidazo[1,2-a]pyrazine], for which the maximal effect (Emax) was 50 to 100%.

As to `c1ccc(Cn2cc(-c3cn4c(-c5ccc6c(c5)OCO6)cnc4cn3)cn2)cc1` [compound 307, 3-(1,3-benzodioxol-5-yl)-6-(1-benzylpyrazol-4-yl)imidazo[1,2-a]pyrazine], the Emax fell in the range of 50 to 100%.

In the case of `COc1cc(OC)cc(-c2cn3c(-c4ccc5c(c4)OCO5)cnc3cn2)c1` [compound 308, 3-(1,3-benzodioxol-5-yl)-6-(3,5-dimethoxyphenyl)imidazo[1,2-a]pyrazine], the Emax lay within 50 to 100%.

As to `Nc1ccc(-c2cn3c(-c4ccc5c(c4)OCO5)cnc3cn2)cn1` [compound 309, 5-[3-(1,3-benzodioxol-5-yl)imidazo[1,2-a]pyrazin-6-yl]pyridin-2-amine], the Emax lay in the range of 10 to 20%.

`CC(C)Oc1cccc(-c2cn3c(-c4ccc5c(c4)OCO5)cnc3cn2)c1` [compound 310, 3-(1,3-benzodioxol-5-yl)-6-(3-isopropoxyphenyl)imidazo[1,2-a]pyrazine] gave an Emax of 50 to 100%.

On to `c1ccc(Oc2ccccc2-c2cn3c(-c4ccncc4)cnc3cn2)cc1` [compound 311, 6-(2-phenoxyphenyl)-3-(4-pyridyl)imidazo[1,2-a]pyrazine], for which the Emax is 20 to 50%.

Compound `Cc1cc(-c2cn3c(-c4ccncc4)cnc3cn2)cc(C)c1O` [compound 312, 2,6-dimethyl-4-[3-(4-pyridyl)imidazo[1,2-a]pyrazin-6-yl]phenol] came in with an Emax of 20 to 50%.

`c1csc(-c2cn3c(-c4ccncc4)cnc3cn2)c1` [compound 314, 3-(4-pyridyl)-6-(2-thienyl)imidazo[1,2-a]pyrazine] had an Emax of 20 to 50%.

`c1cncc(-c2cnc3cnc(-c4ccc(N5CCOCC5)cc4)cn23)c1` [compound 315, 4-[4-[3-(3-pyridyl)imidazo[1,2-a]pyrazin-6-yl]phenyl]morpholine] had a maximal response (Emax) of 20 to 50%.

For `c1cncc(-c2cnc3cnc(-c4cc5ccccc5s4)cn23)c1` [compound 316, 6-(benzothiophen-2-yl)-3-(3-pyridyl)imidazo[1,2-a]pyrazine], the Emax was 20 to 50%.

As to `CSc1ccc(-c2cn3c(-c4cccnc4)cnc3cn2)cc1` [compound 317, 6-(4-methylsulfanylphenyl)-3-(3-pyridyl)imidazo[1,2-a]pyrazine], the Emax is 20 to 50%.

Compound `CS(=O)(=O)Nc1cccc(-c2cn3c(-c4cccnc4)cnc3cn2)c1` [compound 318, N-[3-[3-(3-pyridyl)imidazo[1,2-a]pyrazin-6-yl]phenyl]methanesulfonamide] gave an Emax of 20 to 50%.

In the case of `c1coc(-c2cn3c(-c4ccsc4)cnc3cn2)c1` [compound 319, 6-(2-furyl)-3-(3-thienyl)imidazo[1,2-a]pyrazine], the Emax lay in the range of 20 to 50%.

For `Fc1ccc(-c2cn3c(-c4ccsc4)cnc3cn2)cc1Cl` [compound 320, 6-(3-chloro-4-fluoro-phenyl)-3-(3-thienyl)imidazo[1,2-a]pyrazine], the Emax fell in the range of 20 to 50%.

`O=C(NCCO)c1ccc(-c2cn3c(-c4ccsc4)cnc3cn2)cc1` [compound 321, N-(2-hydroxyethyl)-4-[3-(3-thienyl)imidazo[1,2-a]pyrazin-6-yl]benzamide] yielded a maximal effect (Emax) of 10 to 20%.

Consider `c1csc(-c2cn3c(-c4ccsc4)cnc3cn2)c1` [compound 322, 6-(2-thienyl)-3-(3-thienyl)imidazo[1,2-a]pyrazine], for which the Emax was in the range of 50 to 100%.

The compound `COc1cc(OC)cc(-c2cn3c(-c4ccsc4)cnc3cn2)c1` [compound 323, 6-(3,5-dimethoxyphenyl)-3-(3-thienyl)imidazo[1,2-a]pyrazine] showed an Emax of 20 to 50%.

The compound `Oc1ccc(-c2cnc3cnc(-c4ccc(Cl)cc4)cn23)cc1` [compound 324, 4-[6-(4-chlorophenyl)imidazo[1,2-a]pyrazin-3-yl]phenol] had a maximal effect (Emax) of 20 to 50%.

For `CC(C)N1CCN(c2ccc(-c3cn4c(-c5ccc(O)cc5)cnc4cn3)cc2)CC1` [compound 325, 4-[6-[4-(4-isopropylpiperazin-1-yl)phenyl]imidazo[1,2-a]pyrazin-3-yl]phenol], the Emax fell in the range of 20 to 50%.

In the case of `O=C(NC1CC1)c1ccc(-c2cn3c(-c4ccc(O)cc4)cnc3cn2)cc1` [compound 326, N-cyclopropyl-4-[3-(4-hydroxyphenyl)imidazo[1,2-a]pyrazin-6-yl]benzamide], the Emax fell in the range of 20 to 50%.

Take `Cn1cc(-c2cn3c(-c4ccc(O)cc4)cnc3cn2)cn1` [compound 327, 4-[6-(1-methylpyrazol-4-yl)imidazo[1,2-a]pyrazin-3-yl]phenol]: the Emax is 20 to 50%.

As to `CCOc1cccc(-c2cn3c(-c4ccc(CCC(=O)O)cc4)cnc3cn2)c1` [compound 328, 3-[4-[6-(3-ethoxyphenyl)imidazo[1,2-a]pyrazin-3-yl]phenyl]propanoic acid], the maximal effect (Emax) was no less than 100%.

In turn, `O=C(O)CCc1ccc(-c2cnc3cnc(-c4cccc(Cl)c4)cn23)cc1` [compound 329, 3-[4-[6-(3-chlorophenyl)imidazo[1,2-a]pyrazin-3-yl]phenyl]propanoic acid] came in with an Emax of 20 to 50%.

In turn, `Cc1ccccc1-c1cn2c(-c3ccc(CCC(=O)O)cc3)cnc2cn1` [compound 330, 3-[4-[6-(o-tolyl)imidazo[1,2-a]pyrazin-3-yl]phenyl]propanoic acid] came in with an Emax of 20 to 50%.

Consider `O=C(O)CCc1ccc(-c2cnc3cnc(-c4ccccc4Cl)cn23)cc1` [compound 331, 3-[4-[6-(2-chlorophenyl)imidazo[1,2-a]pyrazin-3-yl]phenyl]propanoic acid], for which the Emax fell in the range of 50 to 100%.

Consider `O=C(O)CCc1ccc(-c2cnc3cnc(-c4cccs4)cn23)cc1` [compound 332, 3-[4-[6-(2-thienyl)imidazo[1,2-a]pyrazin-3-yl]phenyl]propanoic acid], for which the Emax is 20 to 50%.

One may read the Emax as the greatest response seen or fitted, relative to the assay's reference.
